The text below walks through data of patent US20190070174A1, “METHODS OF TREATING NEURODEGENERATIVE DISEASES” (priority 2016, published 2019).

The test system of assay [1] is ATXN3Q81.Luc fusion protein. Briefly: Confirmation dose-response, ATXN3 levels by immunoblotting. It is filed as cell-based, human. To be noted: 293.ATXN3Q81Luc cells. From the text: Full-length ATXN3 (Accession number ABS29269) carrying either a normal or an expanded polyQ tract (Q26 or Q81) was subcloned in the vector pcDNA3.1 FLAG.firefly Luciferase. The mammalian expression plasmids pcDNA.FLAG.ATXN3Q26.Luc and pcDNA.FLAG.ATXN3Q81.Luc were confirmed by sequencing and shown to express N-terminal FLAG-tagged ATXN3Q26 or ATXN3Q81 fused with firefly Luciferase (Luc), respectively. These neomycin-resistant plasmids were transfected into HEK293 cells using Lipofectamine LTX (Invitrogen) during four hours, after which medium was replaced by growth medium (DMEM/10% fetal bovine serum (FBS)/1% penicillin/streptomycin (PS)). […] After one month of passage in selection medium, stably transfected clones for each cell line (293.ATXN3Q26Luc and 293.ATXN3Q81Luc) were pooled and frozen in liquid nitrogen. Stably transfected cell lines were maintained in selection medium except during treatment with specific compounds that were diluted in growth medium.
Protein lysates from cell cultures, mouse brain slices or mouse brains were obtained by lysis in RIPA buffer containing protease inhibitors (Complete, Roche Diagnostics), followed by sonication and centrifugation. The supernatants (soluble protein fractions) were collected, total protein concentration was determined using the BCA method (Pierce) and then stored at −80° C. Total proteins (50 μg from cell and slice cultures or 75 μg from brain regions of mice) were resolved in 10% SDS-PAGE gels, and corresponding PVDF membranes were incubated overnight at 4° C. with primary antibodies: mouse anti-ATXN3 (1H9) (1:2000; MAB5360, Millipore), goat anti-Luciferase (1:500; G7451, Promega), mouse anti-FLAG (M5) (1:500; IB13091, Sigma), rabbit anti-LC3 (1:500; PM036, MBL International Corporation), mouse anti-HSP90β (1:1000; ADI-SPA842, Enzo Life Sciences), rabbit anti-HSP90α (1:1000; ab2928, Abcam), mouse anti-HSP70 (1:500; SPA810, Enzo Life Sciences), rabbit anti-HSP40 (1:1000; #4868, Cell Signaling), rabbit anti-HSP25 (1:1000; ADI-SPA801, Enzo Life Sciences), rabbit anti-HSF1 (1:1000, ADI-SPA-901, Enzo Life Sciences), rabbit anti-ubiquitin (1:1000, Z 0458, Dako), rabbit anti-RAD23A (1:5000; TA307264, Origene), rabbit anti-RAD23B (1:2000; A302-306A, Bethyl Labs), rabbit anti-α-Tubulin (11H10) (1:10000; #2125, Cell Signaling), and mouse anti-GAPDH (1:1000; MAB374, Millipore). Pellets corresponding to insoluble protein fractions were resuspended in 100 μL of Laemmli buffer 2× and boiled for 10 min. Insoluble proteins were then quantified, and 100 μg were loaded in a filter trap assay apparatus and transferred to a nitrocellulose membrane (0.45 μm pore) that was incubated overnight with rabbit anti-MJD antibody (1:5000) at 4° C. Bound primary antibodies were visualized by incubation with a peroxidase-conjugated anti-mouse or anti-rabbit secondary antibody (1:10000; Jackson Immuno Research Laboratories) followed by treatment with the ECL-plus reagent (Western Lighting, PerkinElmer) and exposure to autoradiography films. Band intensity was quantified by densitometry using ImageJ.
Background: A western blot detects proteins with antibodies after separation by electrophoresis.

Assay [2] concerns human mutant ATXN3Q84. The format is cell-based. Conditions: sagittal brain slices treated for 48 hours, cerebellum and brainstem. The method, then: (§1) Nine slices per brain were used in each set of cultures. […] After 48 hours of incubation at 37° C./5% CO2, brain slices were assessed for ATXN3 levels by immunoblotting or immunofluorescence and for cell viability. For immunoblotting, each slice was macrodissected into separate cerebellum and brainstem that were immediately frozen at −80° C. in 80 μL and 150 μL of cold RIPA buffer containing protease inhibitors (Complete, Roche Diagnostics), respectively. Cell viability was assessed on treated slices by incubation in propidium iodide (PI) 1 μg/mL in culture medium for 1 hour. Slices were then mounted in PROLONG Gold Antifade Reagent (Invitrogen) and imaged using a FV500 Olympus confocal microscope.
Protein lysates from cell cultures, mouse brain slices or mouse brains were obtained by lysis in RIPA buffer containing protease inhibitors (Complete, Roche Diagnostics), followed by sonication and centrifugation. The supernatants (soluble protein fractions) were collected, total protein concentration was determined using the BCA method (Pierce) and then stored at −80° C. […] Pellets corresponding to insoluble protein fractions were resuspended in 100 μL of Laemmli buffer 2× and boiled for 10 min. Insoluble proteins were then quantified, and 100 μg were loaded in a filter trap assay apparatus and transferred to a nitrocellulose membrane (0.45 μm pore) that was incubated overnight with rabbit anti-MJD antibody (1:5000) at 4° C. Bound primary antibodies were visualized by incubation with a peroxidase-conjugated anti-mouse or anti-rabbit secondary antibody (1:10000; Jackson Immuno Research Laboratories) followed by treatment with the ECL-plus reagent (Western Lighting, PerkinElmer) and exposure to autoradiography films. Band intensity was quantified by densitometry using ImageJ.
To assess the efficacy of the five compounds to reduce ATXN3 levels in the mammalian brain, secondary screens in organotypic brain slice cultures derived from hemizygous YACMJD84.2 (Q84) transgenic mice were performed.

The subject of assay [3] is mouse Atxn3. Briefly: Organotypic brain slice cultures from YACMJD84.2 (Q84) mice, immunoblotting. The format is cell-based. To be noted: sagittal brain slices treated for 48 hours, cerebellum and brainstem. How it is done: as §1
Protein lysates from cell cultures, mouse brain slices or mouse brains were obtained by lysis in RIPA buffer containing protease inhibitors (Complete, Roche Diagnostics), followed by sonication and centrifugation. The supernatants (soluble protein fractions) were collected, total protein concentration was determined using the BCA method (Pierce) and then stored at −80° C. […] Insoluble proteins were then quantified, and 100 μg were loaded in a filter trap assay apparatus and transferred to a nitrocellulose membrane (0.45 μm pore) that was incubated overnight with rabbit anti-MJD antibody (1:5000) at 4° C. […] Band intensity was quantified by densitometry using ImageJ. […]

`CC#C[C@]1(O)CC[C@H]2[C@@H]3CCC4=CC(=O)CCC4=C3[C@@H](c3ccc(N(C)C)cc3)C[C@@]21C` [mifepristone]: in assay [1], the “levels of ATXN3Q81.Luc fusion protein” value is reported as “confirmed to decrease levels of ATXN3Q81.Luc fusion protein”. Besides, in assay [2], the “levels of human mutant ATXN3Q84” value is recorded as “did not alter ATXN3 levels”.
Take `CC[C@@H](C(=O)[C@@H](C)[C@@H](O)[C@H](C)[C@@H]1O[C@@H]([C@@H](CC)C(=O)O)CC[C@@H]1C)[C@H]1O[C@]2(C=C[C@@H](O)[C@]3(CC[C@@](C)([C@H]4CC[C@](O)(CC)[C@H](C)O4)O3)O2)[C@H](C)C[C@@H]1C` [salinomycin sodium]: in assay [3], the “levels of mouse Atxn3” value is recorded as “reduced levels”. In addition, the “levels of ATXN3Q81.Luc fusion protein” value in assay [1] is “confirmed to decrease levels of ATXN3Q81.Luc fusion protein”. Further, the “levels of human mutant ATXN3Q84” value in assay [2] is listed as “reduced levels”.
Take `Cc1c(C(=O)NN2CCCCC2)nn(-c2ccc(Cl)cc2Cl)c1-c1ccc(I)cc1` [AM251]: the “levels of ATXN3Q81.Luc fusion protein” value in assay [1] is on record as “confirmed to decrease levels of ATXN3Q81.Luc fusion protein”.
Take `Clc1ccccc1C(c1ccccc1)(c1ccccc1)n1ccnc1` [clotrimazole]: the “levels of ATXN3Q81.Luc fusion protein” value in assay [1] was “confirmed to decrease levels of ATXN3Q81.Luc fusion protein”. In assay [2], the “levels of human mutant ATXN3Q84” value is “did not alter ATXN3 levels”.
